From paper PMC5374710, “Discovery of the first dual GSK3β inhibitor/Nrf2 inducer. A new multitarget therapeutic strategy for Alzheimer’s disease” (Scientific Reports, 2017) come the findings set out here.

A value given as a limit tells only on which side of the number the result lay.

One data set deals with Nrf2. The experiment in a line: Nrf2-dependent luciferase reporter assay in AREc32 cell line. In kind it is cell-based. The settings on record: Arec32, 24 h, AREc32 cells, read-out: CD (concentration required to double the luciferase reporter activity). The protocol: Thereafter, we tested the ability of the compounds to induce the Nrf2 transcription factor. We used an Nrf2-dependent luciferase reporter assay in the AREc32 cell line[45]. Cells were cultured for 24 h and then treated with increasing concentrations of compounds 5a–t (0.3, 3, 10 and 30 μM), including the known inducer sulforaphane, containing an isothiocyanate motive as positive control.
AREc32 cells were plated in 96-well white plates (2 × 10^4 cells/well). After 24 h, cells were incubated with increasing concentrations of each compound in duplicate for 24 h. AREc32 cells express constitutively the plasmid pGL-8xARE that implements 8 copies of the EpRE sequences followed by luciferase reporter gen. Therefore, Nrf2 induction is related to the activation of EpRE sequences, expressing luciferase at the same extent as EpRE sequences are activated. The Luciferase Assay System (Promega E1500), was used according to provider protocol and luminescence was quantified in an Orion II microplate luminometer (Berthold, Germany). Fold induction of luciferase activity was normalized to basal conditions. Data are expressed as CD values, expressing the concentration required to double the luciferase activity. CD values are calculated from dose-response curves generated from fold induction of control conditions vs. inducer concentration and fitted by non-linear regression and data interpolated to 2-fold induction concentration.
Breast cancer cells stably transfected to express luciferase after EpRE sequences MCF-7/AREc32 named AREc32, were kindly provided by Dr. C. Roland Wolf (University of Dundee, UK).^14 AREc32 cells were maintained in DMEM with high glucose-glutamax, supplemented with 10 % FBS, 1 % penicillin-streptomycin (10,000 units), and geneticin (0.8 mg/ml G418) at 37 °C and in a 5 % CO2- air atmosphere.^14
AREc32 cells are constitutively transfected with the pGL-8xARE luciferase reporter gene, inserted after EpRE sequences. Thus, Nrf2 translocation to the nucleus induces the activation of the EpRE sequences, expressing their target phase II antioxidant genes, and expressing luciferase at the same extent.^15 AREc32 cells were plated in 96-well white plates (2X10^4 cells/well). After 24 h, cells were incubated with increasing concentrations of each compound in duplicate for 24 h (dissolved in DMSO to give a final 0.1 % vol/vol concentration of vehicle). Each plate included non-treated cells as basal luciferase expression and tBHQ (10 µM) as positive control. TBHQ is a potent Nrf2 inducer used as control in the development of the AREc32 cells.^14 Transfected clones are selected using G418. AREc32 cells express constitutively the plasmid pGL-8xARE that implements 8 copies of the EpRE sequences followed by a luciferase reporter gene. Therefore, the induction of Nrf2 is proportional to the activation of EpRE sequences, expressing luciferase at the same extent as EpRE sequences are activated. Luciferase production is then assessed by a bioluminescence assay. The Luciferase Assay System (Promega E1500), was used according to the Promega protocol and luminescence was quantified in an Orion II microplate luminometer (Berthold, Germany). Relative Light Units (RLU) were recorded for the contents of each well. Fold induction of luciferase activity was calculated by dividing the RLU obtained for the tests wells for each treatment by the average RLU obtained for the basal conditions. Data are expressed as CD values, expressing the concentration required to double the basal luciferase activity, used to quantify the Nrf2 induction potency. CD values are calculated from dose-response curves generated from fold induction of control conditions vs. inducer concentration and fitted by non-linear regression and data interpolated to value the 2-fold induction concentration, using GraphPad Prism software (San Diego, CA, USA).
A general note: Reporter assays use an easily measured gene product as a stand-in for the process of interest.

A further data set relates to primary rat glial cells. The experiment in a line: ROS production in LPS-stimulated primary glial cultures (H2DCFDA). In kind it is cell-based. The settings on record: Glial cell, 24 h pre-incubation, 18 h co-incubation with LPS, 3 h with fluorescent dye, read-out: IC50 ROS reduction.
From the text: Therefore, we envisaged the study of compounds 5a–t as potential anti-inflammatory agents. We used primary rat glial cells treated with lipopolysaccharide (LPS) to induce the production of nitrites and ROS as a model of glial activation. Nitrite production is directly proportional to the expression of the iNOS, that is over-expressed when LPS activates glial cells. ROS production is proportional to NOX activation after stimulation with LPS. Results are summarized in Table 2 as IC50s of nitrite production reduction and ROS production reduction. We have included sulforaphane as control in all experiments (see the Supporting Information).
Besides the increase in nitrite production, it is well known that LPS stimulation of microglia also induces the activation of NOX, which induces superoxide free radical production. In fact, this mechanism is synergistic with the expression of iNOS and the production of nitrites. In this respect, there is a body of evidence showing that NOX activation is a major contributor to ROS oxidative stress and neuronal death in AD[57][58]. […] In general, potency to reduce ROS production increased from ortho to para and meta as observed above.
(§1) Primary glial cells were cultured in bottom transparent 96-well black plates following standard protocol. Cells were pre-incubated with the corresponding compound at the selected concentrations, for 24 hours, and therafter, co-incubated with the corresponding compound and LPS (1 μM) during 18 h more. Then, treatments were removed and cells were loaded with the fluorescent probe 2′,7′-dichlorodihydrofluorescein diacetate (H2DCFDA) (10 μM) for 45 minutes in serum free glial culture medium. All experiments included cells treated with culture medium alone (basal). Cells were washed twice with culture medium and fluorescence intensity was recorded in a Fluostar Optima multiwall pate reader (BMG Labtech, Offenburg, Germany) at 485/520 nm as excitation and emission wavelengths respectively, each hour, during 3 hours period. Data were normalized with respect to basal conditions that were considered as 100%.
as §1, with “µM)” for “μM)”, “2',7'-dichlorodihydrofluorescein” for “2′,7′-dichlorodihydrofluorescein”
Mixed glial cultures were obtained from cerebral cortex of 2-5 day-old Sprague-Dawley rats. After removal of blood vessels and meninges, the forebrains were dissociated in DMEM/F12 medium. After mechanical dissociation, cells were plated (3x10^5 cells/ml) in DMEM/F12 medium with 20% fetal bovine serum (FBS) and 1 % penicillin/streptomycin (10,000 units), at 37 °C and in a 5 % CO2-supplemented air atmosphere. After 5 days, medium was substituted by DMEM/F12 medium with 10 % FBS. Cells were cultured for 7-10 days before treatment.

The next data set deals with HepG2 cells. The experiment in a line: Hepatotoxicity in HepG2 cell line (MTT). The settings on record: 24 h.

One may read the IC50 as the midpoint of a concentration-inhibition curve.

Protocol for HepG2 cells: Thus, it is relevant to study the potential neurotoxicity and hepatotoxicity of the novel dual GSK3β inhibitors-Nrf2 inducers 5a–t.
Viability was measured as MTT reduction in presence of increasing concentrations of derivatives. Values are expressed as LD50 calculated from dose-response curves of four different concentrations.
HepG2 cells were cultured according to supplier indications in EMEM supplemented with 10 % heat-inactivated FBS, 100 µg/mL streptomycin and 100 units/mL penicillin. Cells were maintained at 37 °C in humidified atmosphere of 95 % air and 5 % CO2. For experimental procedures, cells were cultured in 96-well plates at density of 1x10^5 cells/well. Treatments were performed in 1% FBS medium unless other concentration was specified. Cells were used from 4 up to 13 passages.
Cells were cultured in 48-well (SH-SY5Y, 1x10^5 cells per well) or 96-well plates (HepG2, 1x10^5 cells per well) for 24 h. […] Control cells were incubated with the same concentration of DMSO (0.1 % final concentration) without any drug.

With `COc1ccc(C2C(C#N)=C(N)Oc3n[nH]c(C)c32)cc1` (stereo not drawn) [Compound 5d, 6-Amino-4-(4-methoxyphenyl)-3-methyl-2,4-dihydropyrano[2,3-c]pyrazole-5-carbonitrile], in the data set on Nrf2, the EC50 was 25.3 ± 2.4 µM. In addition, the IC50 in the data set with primary rat glial cells came to 19.9 ± 4.89 µM. Further, the “HepG2 LD50” value in the data set on HepG2 cells is on record as more than 100 µM.
The corresponding values for `Cc1n[nH]c2c1C(c1cccs1)C(C#N)=C(N)O2` (stereo not drawn) [Compound 5r, 6-Amino-3-methyl-4-(thiophen-2-yl)-2,4-dihydropyrano[2,3-c]pyrazole-5-carbonitrile] are 17.6 ± 8.4 µM, more than 60 µM and more than 100 µM.
The matching figures for `Cc1n[nH]c2c1C(c1ccccc1Br)C(C#N)=C(N)O2` (stereo not drawn) [Compound 5l, 6-Amino-4-(2-bromophenyl)-3-methyl-2,4-dihydropyrano[2,3-c]pyrazole-5-carbonitrile]: more than 30 µM, 38.6 ± 7.16 µM and more than 100 µM.
